Source: ChEMBL document CHEMBL5620398, “Membrane-active substituted triazines as antibacterial agents against Staphylococcus aureus with potential for low drug resistance and broad activity” (Eur J Med Chem, 2023)
≈ marks a conversion by molar mass, not a printed value. Calls of active or inactive are those of the source. The calls are words filed in the database; no cut-off is given here.

Test system: Enterococcus faecalis
Experiment: Antibacterial activity against Enterococcus faecalis assessed as inhibition of bacterial growth by two-fold serial broth dilution method
Format: functional

In order of falling MIC:
1. CN1CCN(c2nc(NN3C(=O)c4cccc5cccc(c45)C3=O)nc(N3CCOCC3)n2)CC1  200 µg/mL (≈ 421 µM)
2. CN(C)CCNc1nc(NN2C(=O)c3cccc4cccc(c34)C2=O)nc(N2CCOCC2)n1  200 µg/mL (≈ 432 µM)
3. N#Cc1ccc(CNc2nc(NN3C(=O)c4cccc5cccc(c45)C3=O)nc(N3CCOCC3)n2)cc1  100 µg/mL (≈ 197 µM)
4. C=CCNc1nc(NN2C(=O)c3cccc4cccc(c34)C2=O)nc(N2CCOCC2)n1  100 µg/mL (≈ 232 µM)
5. O=C1c2cccc3cccc(c23)C(=O)N1Nc1nc(NCc2ccc(F)cc2)nc(N2CCOCC2)n1  6.25 µg/mL (≈ 12.5 µM)
6. COc1ccc(CNc2nc(NN3C(=O)c4cccc5cccc(c45)C3=O)nc(N3CCOCC3)n2)cc1  3.12 µg/mL (≈ 6.11 µM)
7. O=C1c2cccc3cccc(c23)C(=O)N1Nc1nc(NC2CCCCC2)nc(N2CCOCC2)n1  3.12 µg/mL (≈ 6.59 µM)
8. CCCCNc1nc(NN2C(=O)c3cccc4cccc(c34)C2=O)nc(N2CCOCC2)n1  0.09 µg/mL (≈ 0.201 µM)
9. C#CCNc1nc(NN2C(=O)c3cccc4cccc(c34)C2=O)nc(N2CCOCC2)n1  0.048 µg/mL (≈ 0.112 µM)

For `O=C1c2cccc3cccc(c23)C(=O)N1Nc1nc(N2CCCCC2)nc(N2CCOCC2)n1`, the MIC was “inactive”.

Test system: Bacillus subtilis
Experiment: Antibacterial activity against Bacillus subtilis assessed as inhibition of bacterial growth by two-fold serial broth dilution method
Format: functional

In order of falling MIC:
1. N#Cc1ccc(CNc2nc(NN3C(=O)c4cccc5cccc(c45)C3=O)nc(N3CCOCC3)n2)cc1  400 µg/mL (≈ 790 µM)
2. CN1CCN(c2nc(NN3C(=O)c4cccc5cccc(c45)C3=O)nc(N3CCOCC3)n2)CC1  200 µg/mL (≈ 421 µM)
3. CN(C)CCNc1nc(NN2C(=O)c3cccc4cccc(c34)C2=O)nc(N2CCOCC2)n1  200 µg/mL (≈ 432 µM)
4. O=C1c2cccc3cccc(c23)C(=O)N1Nc1nc(NCc2ccc(F)cc2)nc(N2CCOCC2)n1  100 µg/mL (≈ 200 µM)
5. O=C1c2cccc3cccc(c23)C(=O)N1Nc1nc(NC2CCCCC2)nc(N2CCOCC2)n1  50 µg/mL (≈ 106 µM)
6. C=CCNc1nc(NN2C(=O)c3cccc4cccc(c34)C2=O)nc(N2CCOCC2)n1  50 µg/mL (≈ 116 µM)
7. C#CCNc1nc(NN2C(=O)c3cccc4cccc(c34)C2=O)nc(N2CCOCC2)n1  25 µg/mL (≈ 58.2 µM)
8. CCCCNc1nc(NN2C(=O)c3cccc4cccc(c34)C2=O)nc(N2CCOCC2)n1  25 µg/mL (≈ 55.9 µM)
9. COc1ccc(CNc2nc(NN3C(=O)c4cccc5cccc(c45)C3=O)nc(N3CCOCC3)n2)cc1  12.5 µg/mL (≈ 24.4 µM)
10. O=C1c2cccc3cccc(c23)C(=O)N1Nc1nc(N2CCCCC2)nc(N2CCOCC2)n1  6.25 µg/mL (≈ 13.6 µM)

Test system: Listeria
Experiment: Antibacterial activity against Listeria sps. assessed as inhibition of bacterial growth by two-fold serial broth dilution method
Format: functional

In order of rising MIC:
1. CN1CCN(c2nc(NN3C(=O)c4cccc5cccc(c45)C3=O)nc(N3CCOCC3)n2)CC1  0.006 µg/mL (≈ 0.0126 µM)
2. O=C1c2cccc3cccc(c23)C(=O)N1Nc1nc(NC2CCCCC2)nc(N2CCOCC2)n1  25 µg/mL (≈ 52.8 µM)
3. COc1ccc(CNc2nc(NN3C(=O)c4cccc5cccc(c45)C3=O)nc(N3CCOCC3)n2)cc1  50 µg/mL (≈ 97.7 µM)
4. CN(C)CCNc1nc(NN2C(=O)c3cccc4cccc(c34)C2=O)nc(N2CCOCC2)n1  50 µg/mL (≈ 108 µM)
5. O=C1c2cccc3cccc(c23)C(=O)N1Nc1nc(N2CCCCC2)nc(N2CCOCC2)n1  50 µg/mL (≈ 109 µM)
6. C=CCNc1nc(NN2C(=O)c3cccc4cccc(c34)C2=O)nc(N2CCOCC2)n1  100 µg/mL (≈ 232 µM)
7. N#Cc1ccc(CNc2nc(NN3C(=O)c4cccc5cccc(c45)C3=O)nc(N3CCOCC3)n2)cc1  200 µg/mL (≈ 395 µM)
8. C#CCNc1nc(NN2C(=O)c3cccc4cccc(c34)C2=O)nc(N2CCOCC2)n1  200 µg/mL (≈ 466 µM)
9. CCCCNc1nc(NN2C(=O)c3cccc4cccc(c34)C2=O)nc(N2CCOCC2)n1  200 µg/mL (≈ 447 µM)
10. O=C1c2cccc3cccc(c23)C(=O)N1Nc1nc(NCc2ccc(F)cc2)nc(N2CCOCC2)n1  200 µg/mL (≈ 400 µM)

Test system: Staphylococcus aureus
Experiment: Antibacterial activity against Staphylococcus aureus assessed as inhibition of bacterial growth by two-fold serial broth dilution method
Format: functional

In order of falling MIC:
1. O=C1c2cccc3cccc(c23)C(=O)N1Nc1nc(NC2CCCCC2)nc(N2CCOCC2)n1  100 µg/mL (≈ 211 µM)
2. N#Cc1ccc(CNc2nc(NN3C(=O)c4cccc5cccc(c45)C3=O)nc(N3CCOCC3)n2)cc1  100 µg/mL (≈ 197 µM)
3. CN(C)CCNc1nc(NN2C(=O)c3cccc4cccc(c34)C2=O)nc(N2CCOCC2)n1  100 µg/mL (≈ 216 µM)
4. C#CCNc1nc(NN2C(=O)c3cccc4cccc(c34)C2=O)nc(N2CCOCC2)n1  50 µg/mL (≈ 116 µM)
5. O=C1c2cccc3cccc(c23)C(=O)N1Nc1nc(NCc2ccc(F)cc2)nc(N2CCOCC2)n1  25 µg/mL (≈ 50 µM)
6. C=CCNc1nc(NN2C(=O)c3cccc4cccc(c34)C2=O)nc(N2CCOCC2)n1  25 µg/mL (≈ 57.9 µM)
7. CCCCNc1nc(NN2C(=O)c3cccc4cccc(c34)C2=O)nc(N2CCOCC2)n1  12.5 µg/mL (≈ 27.9 µM)
8. COc1ccc(CNc2nc(NN3C(=O)c4cccc5cccc(c45)C3=O)nc(N3CCOCC3)n2)cc1  6.25 µg/mL (≈ 12.2 µM)
9. CN1CCN(c2nc(NN3C(=O)c4cccc5cccc(c45)C3=O)nc(N3CCOCC3)n2)CC1  1.56 µg/mL (≈ 3.29 µM)
10. O=C1c2cccc3cccc(c23)C(=O)N1Nc1nc(N2CCCCC2)nc(N2CCOCC2)n1  1.56 µg/mL (≈ 3.39 µM)

Test system: Escherichia coli
Experiment: Antibacterial activity against Escherichia coli assessed as inhibition of bacterial growth by two-fold serial broth dilution method
Format: functional

In order of falling MIC:
1. CCCCNc1nc(NN2C(=O)c3cccc4cccc(c34)C2=O)nc(N2CCOCC2)n1  400 µg/mL (≈ 894 µM)
2. O=C1c2cccc3cccc(c23)C(=O)N1Nc1nc(N2CCCCC2)nc(N2CCOCC2)n1  400 µg/mL (≈ 870 µM)
3. COc1ccc(CNc2nc(NN3C(=O)c4cccc5cccc(c45)C3=O)nc(N3CCOCC3)n2)cc1  200 µg/mL (≈ 391 µM)
4. O=C1c2cccc3cccc(c23)C(=O)N1Nc1nc(NC2CCCCC2)nc(N2CCOCC2)n1  200 µg/mL (≈ 422 µM)
5. N#Cc1ccc(CNc2nc(NN3C(=O)c4cccc5cccc(c45)C3=O)nc(N3CCOCC3)n2)cc1  200 µg/mL (≈ 395 µM)
6. CN(C)CCNc1nc(NN2C(=O)c3cccc4cccc(c34)C2=O)nc(N2CCOCC2)n1  200 µg/mL (≈ 432 µM)
7. C=CCNc1nc(NN2C(=O)c3cccc4cccc(c34)C2=O)nc(N2CCOCC2)n1  200 µg/mL (≈ 464 µM)
8. CN1CCN(c2nc(NN3C(=O)c4cccc5cccc(c45)C3=O)nc(N3CCOCC3)n2)CC1  100 µg/mL (≈ 211 µM)
9. C#CCNc1nc(NN2C(=O)c3cccc4cccc(c34)C2=O)nc(N2CCOCC2)n1  100 µg/mL (≈ 233 µM)
10. O=C1c2cccc3cccc(c23)C(=O)N1Nc1nc(NCc2ccc(F)cc2)nc(N2CCOCC2)n1  100 µg/mL (≈ 200 µM)

Test system: Salmonella enterica
Experiment: Antibacterial activity against Salmonella enterica assessed as inhibition of bacterial growth by two-fold serial broth dilution method
Format: functional

In order of falling MIC:
1. N#Cc1ccc(CNc2nc(NN3C(=O)c4cccc5cccc(c45)C3=O)nc(N3CCOCC3)n2)cc1  400 µg/mL (≈ 790 µM)
2. O=C1c2cccc3cccc(c23)C(=O)N1Nc1nc(NC2CCCCC2)nc(N2CCOCC2)n1  200 µg/mL (≈ 422 µM)
3. CN1CCN(c2nc(NN3C(=O)c4cccc5cccc(c45)C3=O)nc(N3CCOCC3)n2)CC1  200 µg/mL (≈ 421 µM)
4. O=C1c2cccc3cccc(c23)C(=O)N1Nc1nc(NCc2ccc(F)cc2)nc(N2CCOCC2)n1  200 µg/mL (≈ 400 µM)
5. O=C1c2cccc3cccc(c23)C(=O)N1Nc1nc(N2CCCCC2)nc(N2CCOCC2)n1  200 µg/mL (≈ 435 µM)
6. C=CCNc1nc(NN2C(=O)c3cccc4cccc(c34)C2=O)nc(N2CCOCC2)n1  200 µg/mL (≈ 464 µM)
7. COc1ccc(CNc2nc(NN3C(=O)c4cccc5cccc(c45)C3=O)nc(N3CCOCC3)n2)cc1  100 µg/mL (≈ 195 µM)
8. C#CCNc1nc(NN2C(=O)c3cccc4cccc(c34)C2=O)nc(N2CCOCC2)n1  100 µg/mL (≈ 233 µM)
9. CCCCNc1nc(NN2C(=O)c3cccc4cccc(c34)C2=O)nc(N2CCOCC2)n1  100 µg/mL (≈ 223 µM)
10. CN(C)CCNc1nc(NN2C(=O)c3cccc4cccc(c34)C2=O)nc(N2CCOCC2)n1  100 µg/mL (≈ 216 µM)

Test system: Acinetobacter calcoaceticus
Experiment: Antibacterial activity against Acinetobacter calcoaceticus assessed as inhibition of bacterial growth by two-fold serial broth dilution method
Format: functional

In order of falling MIC:
1. O=C1c2cccc3cccc(c23)C(=O)N1Nc1nc(NC2CCCCC2)nc(N2CCOCC2)n1  200 µg/mL (≈ 422 µM)
2. CN1CCN(c2nc(NN3C(=O)c4cccc5cccc(c45)C3=O)nc(N3CCOCC3)n2)CC1  200 µg/mL (≈ 421 µM)
3. C#CCNc1nc(NN2C(=O)c3cccc4cccc(c34)C2=O)nc(N2CCOCC2)n1  200 µg/mL (≈ 466 µM)
4. CCCCNc1nc(NN2C(=O)c3cccc4cccc(c34)C2=O)nc(N2CCOCC2)n1  200 µg/mL (≈ 447 µM)
5. O=C1c2cccc3cccc(c23)C(=O)N1Nc1nc(N2CCCCC2)nc(N2CCOCC2)n1  200 µg/mL (≈ 435 µM)
6. COc1ccc(CNc2nc(NN3C(=O)c4cccc5cccc(c45)C3=O)nc(N3CCOCC3)n2)cc1  100 µg/mL (≈ 195 µM)
7. N#Cc1ccc(CNc2nc(NN3C(=O)c4cccc5cccc(c45)C3=O)nc(N3CCOCC3)n2)cc1  100 µg/mL (≈ 197 µM)
8. CN(C)CCNc1nc(NN2C(=O)c3cccc4cccc(c34)C2=O)nc(N2CCOCC2)n1  100 µg/mL (≈ 216 µM)
9. O=C1c2cccc3cccc(c23)C(=O)N1Nc1nc(NCc2ccc(F)cc2)nc(N2CCOCC2)n1  100 µg/mL (≈ 200 µM)
10. C=CCNc1nc(NN2C(=O)c3cccc4cccc(c34)C2=O)nc(N2CCOCC2)n1  100 µg/mL (≈ 232 µM)

Test system: Serratia marcescens
Experiment: Antibacterial activity against Serratia marcescens assessed as inhibition of bacterial growth by two-fold serial broth dilution method
Format: functional

In order of rising MIC:
1. CN1CCN(c2nc(NN3C(=O)c4cccc5cccc(c45)C3=O)nc(N3CCOCC3)n2)CC1  12.5 µg/mL (≈ 26.3 µM)
2. CN(C)CCNc1nc(NN2C(=O)c3cccc4cccc(c34)C2=O)nc(N2CCOCC2)n1  25 µg/mL (≈ 54.1 µM)
3. COc1ccc(CNc2nc(NN3C(=O)c4cccc5cccc(c45)C3=O)nc(N3CCOCC3)n2)cc1  200 µg/mL (≈ 391 µM)
4. O=C1c2cccc3cccc(c23)C(=O)N1Nc1nc(NC2CCCCC2)nc(N2CCOCC2)n1  200 µg/mL (≈ 422 µM)
5. N#Cc1ccc(CNc2nc(NN3C(=O)c4cccc5cccc(c45)C3=O)nc(N3CCOCC3)n2)cc1  200 µg/mL (≈ 395 µM)
6. C#CCNc1nc(NN2C(=O)c3cccc4cccc(c34)C2=O)nc(N2CCOCC2)n1  200 µg/mL (≈ 466 µM)
7. CCCCNc1nc(NN2C(=O)c3cccc4cccc(c34)C2=O)nc(N2CCOCC2)n1  200 µg/mL (≈ 447 µM)
8. O=C1c2cccc3cccc(c23)C(=O)N1Nc1nc(NCc2ccc(F)cc2)nc(N2CCOCC2)n1  200 µg/mL (≈ 400 µM)
9. O=C1c2cccc3cccc(c23)C(=O)N1Nc1nc(N2CCCCC2)nc(N2CCOCC2)n1  200 µg/mL (≈ 435 µM)
10. C=CCNc1nc(NN2C(=O)c3cccc4cccc(c34)C2=O)nc(N2CCOCC2)n1  200 µg/mL (≈ 464 µM)

Test system: Enterococcus faecalis
Experiment: Potency index, ratio of amoxicillin MIC to test compound MIC for antibacterial activity against Enterococcus faecalis
Format: functional

For `CCCCNc1nc(NN2C(=O)c3cccc4cccc(c34)C2=O)nc(N2CCOCC2)n1`, the Ratio was 17.

Test system: Enterococcus faecalis
Experiment: Potency index, ratio of chloromycin MIC to test compound MIC for antibacterial activity against Enterococcus faecalis
Format: functional

`CCCCNc1nc(NN2C(=O)c3cccc4cccc(c34)C2=O)nc(N2CCOCC2)n1` was tested, and the Ratio was 34.
